Article PMC7026480, “Discovery of Multitarget-Directed Ligands Against Influenza A Virus From Compound Yizhihao Through a Predictive System for Compound-Protein Interactions” (Frontiers in Cellular and Infection Microbiology, 2020)
Read-outs that look alike come from different tables or passages of the source.

Experiments:
[1] = system: TNF-α; type: cell-based, human; as to TNF-α expression in cell culture supernatant in comparison with the model group: test concentration or dose not given here
[2] = system: A/Puerto Rico/8/34 (wild-type H1N1); assay: microbe, parasite or virus in culture; type: cell-based; details: Influenza A virus
[3] = system: A/Minfang/151/2000 (wild-type H3N2); assay: microbe, parasite or virus in culture; type: cell-based; details: Influenza A virus, H3N2, MDCK
[4] = target: neuraminidase (NA) of A/PR/8/34 (H1N1) (Influenza A virus, UniProt P03468); assay: biochemical
neuraminidase (NA) of A/PR/8/34 (H1N1), sequence (P03468 whole entry, looked up): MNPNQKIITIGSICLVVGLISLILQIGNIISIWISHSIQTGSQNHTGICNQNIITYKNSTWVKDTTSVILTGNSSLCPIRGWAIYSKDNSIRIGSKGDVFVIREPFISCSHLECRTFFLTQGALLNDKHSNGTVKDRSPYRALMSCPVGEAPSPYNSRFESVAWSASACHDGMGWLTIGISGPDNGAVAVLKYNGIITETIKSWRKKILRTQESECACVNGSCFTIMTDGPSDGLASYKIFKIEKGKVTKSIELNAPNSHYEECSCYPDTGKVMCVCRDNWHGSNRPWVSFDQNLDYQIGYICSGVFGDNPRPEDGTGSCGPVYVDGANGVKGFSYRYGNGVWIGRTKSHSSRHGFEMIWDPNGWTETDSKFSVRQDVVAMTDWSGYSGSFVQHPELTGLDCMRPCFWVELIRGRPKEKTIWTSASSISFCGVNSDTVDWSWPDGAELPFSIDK

[5] = H1N1, MDCK, read-out: IC50, CPE reduction, H1N1 wild-type, in the four modes of action tested
[6] = H1N1 / PR/8, MDCK, read-out: IC50, CPE reduction, A/PR/8/34 (H1N1), Drug administration after virus inoculation
[7] = H1N1 / PR/8, MDCK, read-out: IC50, CPE reduction, A/PR/8/34 (H1N1), Pre-incubation of virus and drug
[8] = H1N1 / PR/8, MDCK, read-out: IC50, CPE reduction, A/PR/8/34 (H1N1), Simultaneous action of virus and drug
[9] = H1N1 / PR/8, MDCK, read-out: IC50, CPE reduction, A/PR/8/34 (H1N1), Virus inoculation after drug administration
[10] = read-out: IC50, CPE reduction, A/Minfang/151/2000 (H3N2), Drug administration after virus inoculation
[11] = read-out: IC50, CPE reduction, A/Minfang/151/2000 (H3N2), Pre-incubation of virus and drug
[12] = read-out: IC50, CPE reduction, A/Minfang/151/2000 (H3N2), Simultaneous action of virus and drug
[13] = read-out: IC50, CPE reduction, A/Minfang/151/2000 (H3N2), Virus inoculation after drug administration
[14] = read-out: IC50, CPE reduction, H3N2 wild-type, in the four modes of action tested
[15] = IC50, NA inhibition test, A/PR/8/34 (H1N1)

Molecule | TNF-α expression in cell culture supernatant in comparison with the model group [1] | IC50 [2, 6] [µM] | IC50 [2, 7] [µM] | IC50 [2, 8] [µM] | IC50 [2, 9] [µM] | IC50 [3, 10] [µM] | IC50 [3, 11] [µM] | IC50 [3, 12] [µM] | IC50 [3, 13] [µM] | further results
cedar acid | significantly less TNF-α | – | – | – | – | – | – | – | – | –
CCOC(=O)C1=C[C@@H](OC(CC)CC)[C@H](NC(C)=O)[C@@H](N)C1 [Oseltamivir, oseltamivir phosphate, reference compound] | – | 83.4 ± 15.6 | 74.9 ± 20.7 | 4.45 ± 0.24 | 11.4 ± 7.44 | 77.9 ± 22.1 | 6.25 ± 2.6 | 8.47 ± 1.73 | 54.5 ± 14.2 | IC50 [2, 5]: < 100 µM; IC50 [3, 14]: < 100 µM
O=c1cc(-c2ccc(O)c(O)c2)oc2cc(O)cc(O)c12 [Luteolin] | significantly less TNF-α | > 100 | 4.53 ± 0.92 | 7.08 ± 0.3 | > 100 | > 100 | 44.7 ± 20 | > 100 | > 100 | effect on TNF-α compared with positive drugs [1]: greater effect on TNF-α than positive drugs
O=C(/C=C/c1ccc(O)c(O)c1)O[C@@H]1C[C@](O)(C(=O)O)C[C@@H](O)[C@H]1O [Chlorogenic acid] | significantly less TNF-α | – | – | – | – | – | – | – | – | IC50 [4, 15]: 64.6 ± 6.97 µM
C=C(C(=O)O)[C@H]1CC[C@H](C)[C@@H]2CC(=O)C(C)=C2C1 (stereo in doubt) [Rupestonic acid] | significantly less TNF-α | – | – | – | – | – | – | – | – | IC50 ([4]; read-out: IC50, NA inhibition test, A/PR/8/34 (H1N1)): > 100 µM
O=c1cc(-c2ccc(O)c(O)c2)oc2c([C@@H]3O[C@H](CO)[C@@H](O)[C@H](O)[C@H]3O)c(O)cc(O)c12 [Orientin] | significantly less TNF-α | – | – | – | – | – | – | – | – | IC50 [4, 15]: 53.7 ± 9.98 µM
COc1ccc(-c2cc(=O)c3c(O)cc(O)cc3o2)cc1 [Acacetin] | – | 62 ± 5.91 | 77.4 ± 25.7 | > 100 | > 100 | > 100 | 12.5 ± 5.46 | 20.5 ± 0.86 | 72.5 ± 11.7 | –
O=c1c(O)c(-c2ccc(O)c(O)c2)oc2cc(O)cc(O)c12 [Quercetin] | – | > 100 | 8.59 ± 1.34 | 5.41 ± 0.14 | > 100 | > 100 | 9.99 ± 2.84 | 18.3 ± 3.52 | > 100 | –
O=C1c2ccccc2-n2c1nc1ccccc1c2=O [Tryptanthrin] | except tryptanthrin, were associated with significantly less TNF-α | > 100 | 72 ± 23.6 | > 100 | > 100 | > 100 | 17.7 ± 1.74 | 31.8 ± 11.6 | 76.3 ± 3.4 | –
O=C(/C=C/c1ccc(O)cc1)c1ccc(O)cc1O [isoliquiritigenin] | significantly less TNF-α | – | – | – | – | – | – | – | – | effect on TNF-α compared with positive drugs [1]: greater effect on TNF-α than positive drugs
Cc1cc(O)c2c(c1)C(=O)c1cc(O)cc(O)c1C2=O [Emodin] | – | > 100 | 55.9 ± 9.8 | 6.53 ± 0.29 | > 100 | > 100 | 18.2 ± 1.02 | 55.9 ± 6 | > 100 | –
NC(=O)c1ncn([C@@H]2O[C@H](CO)[C@@H](O)[C@H]2O)n1 [Ribavirin, ribavirin, reference compound] | – | 16.1 ± 1.47 | 10.4 ± 2.19 | 16.4 ± 2.95 | 47.5 ± 7.94 | 22.5 ± 6.16 | 9.18 ± 0.99 | 21.7 ± 0.97 | 62.5 ± 16.2 | IC50 [2, 5]: < 100 µM; IC50 [3, 14]: < 100 µM
COc1ccc(-c2cc(=O)c3c(O)cc(O[C@@H]4O[C@H](CO[C@@H]5O[C@@H](C)[C@H](O)[C@@H](O)[C@H]5O)[C@@H](O)[C@H](O)[C@H]4O)cc3o2)cc1 [linarin] | significantly less TNF-α | – | – | – | – | – | – | – | – | –
O=C1Nc2ccccc2/C1=C1/Nc2ccccc2C1=O [Indirubin] | – | > 100 | > 100 | > 100 | > 100 | > 100 | > 100 | > 100 | 52.6 ± 27.4 | –
C=C[C@@H]1CNC(=S)O1 [Epigoitrin] | significantly less TNF-α | – | – | – | – | – | – | – | – | IC50 [4]: > 100 µM
COc1ccc(-c2cc(=O)c3c(OC)c(OC)c(OC)cc3o2)cc1OC [sinensetin] | significantly less TNF-α | – | – | – | – | – | – | – | – | –
C=CCC(=NOS(=O)(=O)O)S[C@@H]1O[C@H](CO)[C@@H](O)[C@H](O)[C@H]1O (stereo in doubt) [sinigrin] | significantly less TNF-α | – | – | – | – | – | – | – | – | –
O=c1cc(-c2ccc(O)cc2)oc2cc(O)cc(O)c12 [Apigenin] | – | > 100 | 16.7 ± 1.77 | 9.06 ± 0.41 | > 100 | > 100 | 9.28 ± 2.03 | 15.8 ± 1 | > 100 | –
